The values that follow are results of earlier work, collected in patent publication US9616098B2, “Formulations of vancomycin” (SCIDOSE, LLC, priority 2013, dated 2017).

As to `CN[C@H](CC(C)C)C(=O)N[C@H]1C(=O)N[C@@H](CC(N)=O)C(=O)N[C@H]2C(=O)N[C@H]3C(=O)N[C@H](C(=O)N[C@H](C(=O)O)c4cc(O)cc(O)c4-c4cc3ccc4O)[C@H](O)c3ccc(c(Cl)c3)Oc3cc2cc(c3O[C@@H]2O[C@H](CO)[C@@H](O)[C@H](O)[C@H]2O[C@H]2C[C@](C)(N)[C@H](O)[C@H](C)O2)Oc2ccc(cc2Cl)[C@H]1O` [Vancomycin], the “stable in water after reconstitution” value is given as “approximately 24 hours”.
